Experimental data reported in patent US10047076B2, “Halogen-substituted compounds” (BAYER CROPSCIENCE AKTIENGESELLSCHAFT, priority 2014, dated 2018).

Tests used:
[1] = log P determination by HPLC on reversed-phase column (C18), EEC Directive 79/831 Annex V.A8, acidic (formic acid); type: physicochemical; conditions: HPLC method a), acetonitrile/water with formic acid
Procedure: ^1 The stated mass is the peak of the isotope pattern of the [M+H]^+ ion of the highest intensity; if the [M-H]^- ion was detected, the stated mass is identified with ^2. ^2 The stated mass is the peak of the isotope pattern of the [M-H]^- ion of the highest intensity. ^a) Note regarding the determination of the log P values and mass detection: The determination of the given log P values was carried out in accordance with EEC Directive 79/831 Annex V.A8 by HPLC (High Performance Liquid Chromatography) on a reversed-phase column (C18). […] Mass detection is effected by means of an […] system. ^b) Note regarding the determination of the retention time and mass detection: The stated retention times were determined on a reversed-phase column (C18) Shimadzu LCMS 2020; 50*3.0 Shimadzu shim-pack XR-ODS 2.2 micron; mobile phase A: water (0.05% TFA); mobile phase B: acetonitrile; linear gradient from 5% acetonitrile to 95% acetonitrile in 6.00 min, then 95% acetonitrile for a further 1.1 min; oven temperature 40° C.; flow rate: 1.0 ml/min. ^c) Note regarding the determination of the retention time and mass detection: Instrument: Waters ACQUITY SQD UPLC system; column. Waters Acquity UPLC HSS T3 1.8μ 50×1 mm; mobile phase A: 1 l of water+0.25 ml of 99% strength formic acid, mobile phase B: 1 l of acetonitrile+0.25 ml of 99% strength formic acid; gradient: 0.0 min 90% A→1.2 min 5% A→2.0 min 5% A oven: 50° C.; flow rate: 0.40 ml/min; UV detection: 208-400 nm. ^d) Note regarding the determination of the retention time and mass detection: […] The determination of the given log P values was carried out in accordance with EEC Directive 79/831 Annex V.A8 by HPLC (High Performance Liquid Chromatography) on a reversed-phase column (C18). […] Mass detection is effected by means of an […] system.

Phaedon cochleariae = Phaedon cochleariae spray test; conditions: larvae on Chinese cabbage leaf discs, after 7 days
Spodoptera frugiperda = Spodoptera frugiperda spray test; type: in vivo; conditions: 500 g/ha, caterpillars on maize leaf discs, after 7 days
Source text: Solvent: 78.0 parts by weight of acetone

| SMILES | logP [1] | further results |
| --- | --- | --- |
| Cn1nc(C(F)(F)C(F)(F)F)c(C(F)(F)F)c1-c1nnc(-c2ccc(Cl)c(C(=O)NC3CC3)c2)[nH]1 [Ibi-3] | 3.40 | – |
| CN(C(=O)c1cccc(-c2cc(-c3c(C(F)(F)F)c(C(F)(F)C(F)(F)F)nn3C)nn2C)c1)C1CC1 [Iax-1, N-cyclopropyl-3-[1,2′-dimethyl-5′-(pentafluoroethyl)-4′-(trifluoromethyl)-1H,2′H-3,3′-bipyrazol-5-yl]-N-methylbenzamide] | – | chromatographic logP [1]: 4.13; efficacy (Phaedon cochleariae; 100 g/ha): 100% |
| Cn1nc(C(F)(F)C(F)(F)F)c(C(F)(F)F)c1-c1ncc(-c2cccc(C(N)=O)c2)s1 [Iaq-2] | 3.38 | – |
| CC(C)n1nc(-c2ccc(Cl)c(C(=O)NC3CC3)c2)nc1-c1c(C(F)(F)F)c(C(F)(F)C(F)(F)F)nn1C [Ibg-13] | 4.35 | efficacy (Phaedon cochleariae; 500 g/ha): 100% |
| Cn1nc(C(F)(F)C(F)(F)F)c(C(F)(F)F)c1-c1noc(-c2ccc(Cl)c(C(=O)NCc3ccccc3)c2)n1 [Ibe-2] | 4.76 | – |
| Cn1nc(C(F)(F)C(F)(F)F)c(C(F)(F)F)c1-c1nnc(-c2ccc(Cl)c(C(=O)Nc3ccccc3)c2)[nH]1 [Ibi-4] | 4.13 | – |
| Cn1nc(-c2c(C(F)(F)F)c(C(F)(F)C(F)(F)F)nn2C)nc1-c1ccc(Cl)c(C(=O)NC2CC2)c1 [Ibh-8] | 3.67 | efficacy (Phaedon cochleariae; 500 g/ha): 100%; efficacy (Spodoptera frugiperda): 83% |
| Cn1nc(C(F)(F)C(F)(F)F)c(C(F)(F)F)c1-c1noc(-c2ccc(Cl)c(C(=O)Nc3ccc(F)cc3)c2)n1 [Ibe-3] | 4.91 | efficacy (Phaedon cochleariae; 500 g/ha): 100% |
| CC(C)n1nc(-c2ccc(Cl)c(C(=O)Nc3ccccc3)c2)nc1-c1c(C(F)(F)F)c(C(F)(F)C(F)(F)F)nn1C [Ibg-11] | 5.13 | – |
| CN(C(=O)c1cccc(-c2cc(-c3c(C(F)(F)F)c(C(F)(F)C(F)(F)F)nn3C)n(C)n2)c1)C1CC1 [Iaw-1, N-cyclopropyl-3-[2,2′-dimethyl-5′-(pentafluoroethyl)-4′-(trifluoromethyl)-2H,2′H-3,3′-bipyrazol-5-yl]-N-methylbenzamide] | – | chromatographic logP [1]: 3.94 |
| Cn1nc(C(F)(F)C(F)(F)F)c(C(F)(F)F)c1-c1nc(-c2ccc(Cl)c(C(=O)NC3CC3)c2)ns1 [Ibd-3, 2-chloro-N-cyclopropyl-5-{5-[1-methyl-3-(pentafluoroethyl)-4-(trifluoromethyl)-1H-pyrazol-5-yl]-1,2,4-thiadiazol-3-yl}benzamide] | – | efficacy (Phaedon cochleariae; 500 g/ha): 100% |
| Cn1nc(-c2ccc(Cl)c(C(=O)Nc3ccccc3)c2)nc1-c1c(C(F)(F)F)c(C(F)(F)C(F)(F)F)nn1C [Ibg-14] | 4.56 | – |
| Cn1nc(-c2c(C(F)(F)F)c(C(F)(F)C(F)(F)F)nn2C)nc1-c1cccc(C(=O)NCc2ccccc2)c1 [Ibh-2, N-benzyl-3-{1-methyl-3-[1-methyl-3-(pentafluoroethyl)-4-(trifluoromethyl)-1H-pyrazol-5-yl]-1H-1,2,4-triazol-5-yl}benzamide] | – | chromatographic logP [1]: 4.16 |
| Cn1nc(C(F)(F)C(F)(F)F)c(C(F)(F)F)c1-c1cc(-c2ccc(Cl)c(C(=O)NCC(=O)NCC(F)(F)F)c2)no1 [Iap-6] | 3.87 | efficacy (Phaedon cochleariae; 100 g/ha): 100% |
| Cn1nc(-c2c(C(F)(F)F)c(C(F)(F)C(F)(F)F)nn2C)nc1-c1ccc(Cl)c(C(=O)Nc2ccccc2)c1 [Ibh-14] | 4.42 | – |
| Cn1nc(C(F)(F)C(F)(F)F)c(C(F)(F)F)c1-c1nnc(-c2cccc(C(=O)NC3CC3)c2)s1 [Iaj-1, N-cyclopropyl-3-{5-[1-methyl-3-(pentafluoroethyl)-4-(trifluoromethyl)-1H-pyrazol-5-yl]-1,3,4-thiadiazol-2-yl}benzamide] | – | chromatographic logP [1]: 3.72; efficacy (Phaedon cochleariae; 500 g/ha): 100% |
| Cn1nc(-c2ccc(Cl)c(C(=O)NCC(F)(F)F)c2)nc1-c1c(C(F)(F)F)c(C(F)(F)C(F)(F)F)nn1C [Ibg-4] | 4.14 | – |
| Cn1nc(-c2ccc(Cl)c(C(=O)NCc3ccccc3)c2)nc1-c1c(C(F)(F)F)c(C(F)(F)C(F)(F)F)nn1C [Ibg-10] | 4.43 | – |
| Cn1nc(-c2ccc(Cl)c(C(=O)NC3CC3)c2)nc1-c1c(C(F)(F)F)c(C(F)(F)C(F)(F)F)nn1C [Ibg-7] | 3.80 | efficacy (Phaedon cochleariae; 500 g/ha): 100% |
| Cn1nc(C(F)(F)C(F)(F)F)c(C(F)(F)F)c1-c1nnc(-c2ccc(Cl)c(C(=O)NCC(F)(F)F)c2)[nH]1 [Ibi-2] | 3.73 | – |
| CCn1nc(-c2c(C(F)(F)F)c(C(F)(F)C(F)(F)F)nn2C)nc1-c1ccc(Cl)c(C(=O)NCC(F)(F)F)c1 [Ibh-5] | 4.32 | efficacy (Phaedon cochleariae; 500 g/ha): 100% |

| SMILES | logP [1] | further results |
| --- | --- | --- |
| CCn1nc(-c2c(C(F)(F)F)c(C(F)(F)C(F)(F)F)nn2C)nc1-c1ccc(Cl)c(C(=O)NCc2ccccc2)c1 [Ibh-10] | 4.59 | – |
| CCn1nc(-c2c(C(F)(F)F)c(C(F)(F)C(F)(F)F)nn2C)nc1-c1ccc(Cl)c(C(=O)Nc2ccccc2)c1 [Ibh-13] | 4.73 | – |
| Cn1nc(C(F)(F)C(F)(F)F)c(C(F)(F)F)c1-c1nc(-c2cccc(C(=O)NCC(F)(F)F)c2)n[nH]1 [Ibg-3] | 3.54 | – |
| Cn1nc(-c2c(C(F)(F)F)c(C(F)(F)C(F)(F)F)nn2C)nc1-c1ccc(Cl)c(C(=O)NCc2ccccc2)c1 [Ibh-11] | 4.29 | – |
| CCn1nc(-c2ccc(Cl)c(C(=O)NCc3ccccc3)c2)nc1-c1c(C(F)(F)F)c(C(F)(F)C(F)(F)F)nn1C [Ibg-9] | 4.71 | efficacy (Phaedon cochleariae; 500 g/ha): 100% |
| CC(C)n1nc(-c2ccc(Cl)c(C(=O)NCc3ccccc3)c2)nc1-c1c(C(F)(F)F)c(C(F)(F)C(F)(F)F)nn1C [Ibg-8] | 4.93 | efficacy (Phaedon cochleariae; 500 g/ha): 100% |
| CCn1nc(-c2ccc(Cl)c(C(=O)NCC(F)(F)F)c2)nc1-c1c(C(F)(F)F)c(C(F)(F)C(F)(F)F)nn1C [Ibg-6] | 4.41 | – |
| CC(C)n1nc(-c2c(C(F)(F)F)c(C(F)(F)C(F)(F)F)nn2C)nc1-c1ccc(Cl)c(C(=O)NCc2ccccc2)c1 [Ibh-9] | 4.98 | – |
| CC(C)n1nc(-c2c(C(F)(F)F)c(C(F)(F)C(F)(F)F)nn2C)nc1-c1ccc(Cl)c(C(=O)NCC(F)(F)F)c1 [Ibh-7] | 4.68 | – |
| CCn1nc(-c2ccc(Cl)c(C(=O)Nc3ccccc3)c2)nc1-c1c(C(F)(F)F)c(C(F)(F)C(F)(F)F)nn1C [Ibg-12] | 4.85 | – |
| Cn1nc(C(F)(F)C(F)(F)F)c(C(F)(F)F)c1-c1nc(-c2cccc(C(=O)NC3CC3)c2)n[nH]1 [Ibg-2] | 3.24 | – |
| Cn1nc(C(F)(F)C(F)(F)F)c(C(F)(F)F)c1-c1ncc(-c2cccc(C(=O)NC3(C#N)CC3)c2)s1 [Iaq-1, N-(1-cyanocyclopropyl)-3-{2-[1-methyl-3-(pentafluoroethyl)-4-(trifluoromethyl)-1H-pyrazol-5-yl]-1,3-thiazol-5-yl}benzamide] | – | chromatographic logP [1]: 3.93; efficacy (Phaedon cochleariae; 100 g/ha): 100% |
| Cn1nc(C(F)(F)C(F)(F)F)c(C(F)(F)F)c1-c1nnc(-c2ccc(Cl)c(C(=O)NCc3ccccc3)c2)[nH]1 [Ibi-1] | 4.00 | – |
| Cn1nc(C(F)(F)C(F)(F)F)c(C(F)(F)F)c1-c1nc(-c2ccc(Cl)c(C(=O)NCc3ccccc3)c2)ns1 [Ibd-1] | 5.00 | – |
| Cn1nc(C(F)(F)C(F)(F)F)c(C(F)(F)F)c1-c1nc(-c2ccc(Cl)c(C(=O)Nc3ccc(F)cc3)c2)ns1 [Ibd-2] | 5.17 | – |
| CC(C)n1nc(-c2c(C(F)(F)F)c(C(F)(F)C(F)(F)F)nn2C)nc1-c1ccc(Cl)c(C(=O)NC2CC2)c1 [Ibh-6] | 4.39 | efficacy (Phaedon cochleariae; 500 g/ha): 100% |
| Cn1nc(-c2cccc(C(=O)NCc3ccccc3)c2)nc1-c1c(C(F)(F)F)c(C(F)(F)C(F)(F)F)nn1C [Ibg-15, N-benzyl-3-{1-methyl-5-[1-methyl-3-(pentafluoroethyl)-4-(trifluoromethyl)-1H-pyrazol-5-yl]-1H-1,2,4-triazol-3-yl}benzamide] | – | chromatographic logP [1]: 4.24 |
| Cn1nc(C(F)(F)C(F)(F)F)c(C(F)(F)F)c1-c1nc(-c2cccc(C(=O)NCc3ccccc3)c2)n[nH]1 [Ibg-1, N-benzyl-3-{5-[1-methyl-3-(pentafluoroethyl)-4-(trifluoromethyl)-1H-pyrazol-5-yl]-1H-1,2,4-triazol-3-yl}benzamide] | – | chromatographic logP [1]: 3.8 |
| Cn1nc(C(F)(F)C(F)(F)F)c(C(F)(F)F)c1-c1noc(-c2ccc(Cl)c(C(=O)NC3CC3)c2)n1 [Ibe-1, 2-chloro-N-cyclopropyl-5-{3-[1-methyl-3-(pentafluoroethyl)-4-(trifluoromethyl)-1H-pyrazol-5-yl]-1,2,4-oxadiazol-5-yl}benzamide] | – | chromatographic logP [1]: 4.16; efficacy (Phaedon cochleariae; 500 g/ha): 100%; efficacy (Spodoptera frugiperda): 100% |
| CC(C)n1nc(-c2c(C(F)(F)F)c(C(F)(F)C(F)(F)F)nn2C)nc1-c1ccc(Cl)c(C(=O)Nc2ccccc2)c1 [Ibh-12] | 5.23 | – |
